This is an account of results in patent US20250057808A1, “COMPOSITION COMPRISING BETA LACTAM FOR TREATING ALCOHOL DEPENDENCE AND ALCOHOL ASSOCIATED DISEASES OR CONDITIONS” (Temple University of the Commonwealth System of Higher …, priority 2023, published 2025).

One data set has as its system xCT. The experiment in a line: Western blot xCT expression in NAc-core, NAc-shell and liver (50 mg/kg study). It counts as in vivo, P rats. The following applies: MC-100093 50 mg/kg or ceftriaxone 200 mg/kg i.p. 5 days; for Protein expression of xCT in the NAc-shell: vs Ethanol group. The method, then:
We used micro-punch procedure to dissect the subregions of the NAc such as NAc-core and NAc-shell as well as the subregions of prefrontal cortex such as infralimbic (IL) and prelimbic (PL) from the brain on day 6 after the last injection day. P rats were removed from the cage and rapidly euthanized by CO2 inhalation followed by rapid decapitation with a guillotine. Brains were isolated and immediately frozen on dry ice and stored at −80° C. The stereotaxic coordinates provided by Paxinos and colleague's rat brain stereotactic atlas was used to isolate NAc-core and NAc-shell using a cryostat apparatus (−20° C.), which then kept at −80° C. for later western blot analyses.
Western Blot assay was performed to measure changes in the expression of GLT-1, xCT, mGluR1, mGluR5, PPAR-α, PPARγ, GAPDH and β-tubulin in the NAc-core and NAc-shell as described in previous publications. A lysis buffer containing protease and phosphatase inhibitors was used to generate a homogenate of liver, Nac-core, and Nac-shell samples. The amount of protein was quantified using a detergent compatible protein assay (Bio-Rad, Hercules, CA, USA) for each sample. Samples were mixed with laemmli dye and loaded with equal amounts on polyacrylamide gels (10%), which separated the proteins using electrophoresis. After that, polyvinylidene difluoride (PVDF) membranes were used to transfer the proteins electrophoretically from the gels. Membranes were incubated in 5% free-fat milk in Tris-buffered saline with Tween-20 (TBST) for 30-60 minutes at room temperature. Membranes were then incubated with appropriate primary antibodies overnight at 4° C.: rabbit anti-GLT-1 (1:5000, Abcam, ab41621), rabbit anti-xCT (1:2000, Abcam, ab175186), rabbit anti-mGluR1 (1:1000, Abcam, ab82211), rabbit anti-mGluR5 (1:1000, Abcam, ab76316), rabbit anti-PPAR-α (1:1000, Abcam, ab24509), and rabbit anti-PPARγ (1:1000, Abcam, ab209350). Mouse anti-β-tubulin (1:1000; BioLegend) was used as a loading control antibody for the brain samples and rabbit anti-GAPDH (1:5000; cell signaling) was used as a loading control antibody for the liver samples. Membranes were washed five times on the next day with TBST followed by incubation with appropriate secondary antibody (1:5000) for 90 minutes at room temperature. Chemiluminescent reagents (Super Signal West Pico, Pierce Inc.) were used to detect the proteins using a GeneSys imaging system to develop the digitized blot images. Water-control group data were represented as 100% and all other values were expressed relative to control group to detect changes in the expression of the protein of interest in the brain and liver samples.
All statistical analyses were conducted with Graphpad Prism software, with p-values of 0.05 or less being statistically significant. We performed a two-way (mixed model) ANOVA followed by Bonferroni multiple comparison post-hoc test to analyze 24 h ethanol consumption, 24 h water consumption, and daily body weight. For the Western blot and oil red O staining analysis, we performed one-way ANOVA with Newman-Keuls as a post hoc multiple comparison test to measure differences between groups as a percentage (relative to control values).

The nature of data set [1]: Ethanol-intake model (section C). Format: in vivo, Male P rats. The method, then:
Male P rats were obtained from Indiana University School of Medicine (Indianapolis, IN, USA). P rats were ˜90 days old at the beginning of the drinking paradigms. P rats were used in this study as they fit the necessary criteria of ethanol preference. P rats may consume freely ethanol (15% and 30%, v/v) and achieve a pharmacologically blood alcohol concentration (BACs) of 50-200 mg % as shown in previous studies from Indiana University. Rats were housed in a room kept at 21° C. on a 12/12-hour light/dark cycle and had free access to water and food. All experimental procedures were approved by the Institutional Animal Care and Use Committee (IACUC) at University of Toledo under protocol #400160, in accordance with all guidelines of IACUC of the National Institute of Health, and the Guide for the Care and Use of Laboratory Animals.
Rats were assigned to three groups prior to the start of the experiments based on their weights, and the average weights of each group were similar between all groups. Male P rats were divided into three groups: a) Control/water group was exposed to water for five weeks and received saline vehicle injection (i.p.) every 24 hours during Week 6 for a total of five days; b) Ethanol/saline group was exposed to free choice of ethanol (15% and 30%, v/v) as well as water for 5 weeks and received saline vehicle (i.p.) every 24 hours during Week 6 for a total of five days; c) Ethanol/MC-100093 group was exposed to free choice of ethanol (15% and 30%, v/v) as well as water for 5 weeks and received MC-100093 (100 mg/kg, i.p.) every 24 hours during Week 6 for 5 days (FIG. 16). […]
The baseline was calculated by taking the average of the prior 5 weeks of water and ethanol consumption as rat weight. […] As weights of the bottles were recorded, the measurements were converted using g of ethanol intake/kg of body weight/day formula to determine ethanol consumption in g/kg of body weight. […]
Statistical analyses were performed using GraphPad Prism Version 10. […] Statistical significance was determined by a p-value of or less than 0.05.

The test system of the next data set is plasma protein. The following applies: cited from earlier work.

Entries after “also recorded” stand apart in the source; their conditions may differ.

With `C[C@@H](O)[C@H]1C(=O)N[C@@H]1[C@@H](C)C(=O)N1CCN(C)CC1` [MC-100093], the “Protein expression of xCT in the NAc-core” value with xCT (among all groups) was “non-significant difference; also recorded: no significant difference”. For the same compound, the “Protein expression of xCT in the liver” value in the data set with xCT (between all groups) is “no significant differences”. Also, the “Protein expression of xCT in the NAc-shell” value was “significantly higher level of xCT; also recorded: normalized GLT-1 and xCT levels in the NAc-shell” in the data set with xCT; “significantly increased xCT expression” in the data set with xCT (listed as MC-100095). Further, the Water intake entry in data set [1] (male P rats exposed to ethanol, 100 mg/kg i.p., day 5, 100 mg/kg) is “significant increase in water intake; also recorded: drank significantly more water than the ethanol/saline group”. Also, in data set [1] (male P rats, 100 mg/kg i.p. 5 days), the Body weight entry is “no significant effect of Treatment by Day interaction on body weight”. In data set [1] (male P rats, 100 mg/kg i.p. days 1-5 of Week 6, vs saline vehicle, 100 mg/kg), the Ethanol intake result is given as “reduced ethanol intake after 5-week drinking regimen; also recorded: significant decrease in ethanol intake; also recorded: reduced ethanol intake in P rats staring 24 hours after the first injection of the drug through the five days regimen; also recorded: robust effect in ethanol intake”. The “Binding to plasma protein” value in the data set on plasma protein was “low binding to plasma protein”.
